Consider one compound from ChEMBL document CHEMBL1141442, “Structure elucidation of a dihydropyranone from Tapinanthus dodoneifolius” (J Nat Prod, 2007).

The structures appear in SMILES notation.

The species named for this assay is Rattus norvegicus. The assay can be described thus: Vasorelaxant effect on norepinephrine induced-contraction in Wistar rat aortic rings. Type of assay: functional, organism-based. As to conditions: Aorta.

For the compound `O=C1C=CC[C@H](C[C@@H](O)CCc2ccc(O)cc2)O1`, inhibition was half-maximal at 81.4 µM (IC50).

By IC50 is commonly meant the concentration that gives 50% inhibition. Low readings indicate greater potency in that assay, high ones weaker potency in that assay.
